In US20220088146A1, “Melanocortin Receptor-Specific Peptide Formulations and Methods for Gastrointestinal Tract-Specific Delivery” (Palatin Technologies, Inc., priority 2018, published 2022):
Ends that are not written are not given here.

How the values were obtained:
[1] = Plasma assay for systemic peptide in DNBS colitis rats after oral capsules; assay type: in vivo, rat; settings: oral capsules of Lot 41
[2] = Human clinical microdose study of C14-labeled oral formulation; assay type: in vivo; settings: single oral microdose of C14-labeled Example 9.3 formulated as for Lot 41
Source text: A combination of Eudragit® L100-55, Eudragit® S-100 and Eudragit® FS30D polymethacrylates were selected and utilized at a weight ratio of 23.25:23.0:12.5, where the weight of L100-55 and S-100 was dry weight of solid material, and the weight of FS30D was of a commercially prepared aqueous formulation wherein the 12.5 grams of liquid FS30D contained 3.75 grams polymer, for a weight ratio of polymer of 23.25:23:3.75. The combination of polymethacrylates were placed in acetone and stirred for an extended period. […] The dried material was retrieved, diluted with additional dried polymetacrylate mixture not containing peptide to obtain the desired target concentration in a predetermined quantity of material, and milled to the desired diameter and sieved. The sieved material was placed within a gelatin size 2 capsule to provide an oral formulation.
The oral formulation was administered in a microdose level to 24 subjects, divided into six cohorts of 4 subjects each.
The only radioactive material identified in urine was the C14 labelled phenylalanine.

MC2r = biological target: T1, MC2r (Homo sapiens, UniProt Q01718); assay: Functional selectivity evaluation at Cerep, MC2r; assay type: cell-based
T1 construct: Cerep
Source text: The results were as follows:

72 in vitro assays = assay: Eurofins lead profile; settings: 10 μM
[3] = test system: DNBS-induced bowel inflammation; assay: Cannulated rat DNBS model of bowel inflammation, intracolonic dosing; assay type: in vivo; settings: 0.5 μg and 5.0 μg intracolonic, Wistar rats
Procedure: The rats were implanted with a catheter in the proximal part of the ascending colon, which exited out the nape of the neck for dosing access. […] Non-cannulated control rats were administered sulfasalazine (positive controls) and vehicle (untreated controls).

MC1r = assay: Functional selectivity evaluation at Cerep, MC1r; assay type: cell-based
MC3r = biological target: T2, MC3r (Homo sapiens, UniProt P41968); assay: Functional selectivity evaluation at Cerep, MC3r; assay type: cell-based
T2 construct: Cerep

[4] = Dissolution of Eudragit microparticles, USP Apparatus 2; assay type: physicochemical; settings: Lot 40 microparticles (FIG. 8)
Procedure: About 1 g of the microparticles was accurately weighed and suspended in the acid at 37° C. for 2 hours. The pH of the medium was then sequentially adjusted to pH 5.5 for 1 hour, pH 6.8 for another hour and finally to pH 7.4 for 7 hours.

hMC1r [5] = biological target: T3, hMC1r (Homo sapiens, UniProt Q01726); assay: Assay for agonist activity: cAMP accumulation in HBL melanoma cells; assay type: cell-based; design: endogenous in cells; host or cells: HBL human melanoma cells; settings: for Emax: HBL, compared to NDP-α-MSH as 100%, read-out: MC-1 Emax (average; cAMP HBL); for EC50: read-out: MC-1 EC50 (average; cAMP HBL)
Procedure: 8.2 Assay for Agonist Activity.
Confluent HBL cells that express hMC1r or HEK-293 cells that express recombinant hMC4r were detached from culture plates by incubation in enzyme-free cell dissociation buffer. Dispersed cells were suspended in Earle's Balanced Salt Solution containing 10 mM HEPES (pH 7.5), 1 mM MgCl2, 1 mM glutamine, 0.5% albumin and 0.3 mM 3-isobutyl-1-methyl-xanthine (IBMX), a phosphodiesterase inhibitor. The cells were plated in 96-well plates at a density of 0.4×10^5 cells per well for HBL cells and 0.5×10^5 cells per well for HEK-293 cells and pre-incubated for 10 minutes. Cells were exposed for 15 minutes at 37° C. to peptides of the present invention dissolved in DMSO (final DMSO concentration of 1%) at a concentration range of 0.05-5000 nM in a total assay volume of 200 μL. […] Data analysis was performed by nonlinear regression analysis with Graph-Pad Prism® software.
(§1) All results are expressed in nM except for Emax values, which are percentage values. Peptides with the captioned primary sequence were synthesized and purified as described in Section 7 above, with the resulting peptide having the structure depicted.

MC4r [6] = biological target: T4, MC4r (Homo sapiens, UniProt P32245); assay: Competitive inhibition binding assay using [I125]-NDP-α-MSH, hMC4r membranes; design: expressed in transfected cells; host or cells: HEK-293; settings: human recombinant MC4r, HEK-293 membranes, read-out: MC-4 Ki (average)
Procedure: (§2) A competitive inhibition binding assay was performed using membrane homogenates prepared from HEK-293 cells that express recombinant hMC1r or hMC4r (in each instance where the h prefix refers to human), or alternatively membrane homogenates from B16-F10 mouse melanoma cells containing endogenous murine MC1r. In the examples that follow, all MC1r and MC4r values are for human recombinant receptors, unless otherwise noted. Assays were performed in 96 well polypropylene round-bottom plates (VWR catalog number 12777-030). […] After incubation for 90 minutes at 37° C., the assay mixture was filtered onto GF/B Unifilter plates (Perkin-Elmer catalog number 6005177) and washed with 3 mL of ice-cold buffer per well. Filters were air dried and 35 μL of scintillation cocktail added to each well. Plates were counted in a Microbeta counter for bound radioactivity. […] Each assay was conducted in duplicate and the actual mean values are described, with results less than 0% reported as 0%. Ki values for peptides of the present invention were determined using Graph-Pad Prism® curve-fitting software.
as §1

TNF-α = assay: Lipopolysaccharide-induced TNF-α inhibition in vitro; assay type: cell-based
MC4r [7] = biological target: T4, MC4r; assay: cell-based
MC5r = biological target: T5, MC5r (Homo sapiens, UniProt P33032); assay: Functional selectivity evaluation at Cerep, MC5r; assay type: cell-based
T5 construct: Cerep

hMC1r [8] = biological target: T3, hMC1r; assay: Competitive inhibition binding assay using [I125]-NDP-α-MSH, hMC1r membranes; settings: human recombinant MC1r, HEK-293 membranes, read-out: MC-1 Ki (average)
Procedure: as §2, §1

T4 sequence (P32245 whole entry): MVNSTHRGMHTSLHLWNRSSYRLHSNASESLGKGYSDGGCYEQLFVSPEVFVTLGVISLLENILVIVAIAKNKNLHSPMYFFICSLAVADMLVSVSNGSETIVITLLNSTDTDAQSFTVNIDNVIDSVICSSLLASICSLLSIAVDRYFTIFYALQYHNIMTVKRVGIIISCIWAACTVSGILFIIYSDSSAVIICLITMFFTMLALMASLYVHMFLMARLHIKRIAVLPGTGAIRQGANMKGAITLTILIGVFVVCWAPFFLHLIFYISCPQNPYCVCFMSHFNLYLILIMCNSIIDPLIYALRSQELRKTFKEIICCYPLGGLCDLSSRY
T3 sequence (Q01726 whole entry): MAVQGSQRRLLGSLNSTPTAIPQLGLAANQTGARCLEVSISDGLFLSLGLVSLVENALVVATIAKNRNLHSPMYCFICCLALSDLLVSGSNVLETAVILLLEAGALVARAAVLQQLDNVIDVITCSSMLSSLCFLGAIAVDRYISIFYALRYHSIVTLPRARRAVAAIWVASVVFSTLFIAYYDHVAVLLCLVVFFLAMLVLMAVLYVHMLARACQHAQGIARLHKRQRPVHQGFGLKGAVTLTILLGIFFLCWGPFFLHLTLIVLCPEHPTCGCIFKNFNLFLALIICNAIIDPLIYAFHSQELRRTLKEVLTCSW
T5 sequence (P33032 whole entry, species assumed): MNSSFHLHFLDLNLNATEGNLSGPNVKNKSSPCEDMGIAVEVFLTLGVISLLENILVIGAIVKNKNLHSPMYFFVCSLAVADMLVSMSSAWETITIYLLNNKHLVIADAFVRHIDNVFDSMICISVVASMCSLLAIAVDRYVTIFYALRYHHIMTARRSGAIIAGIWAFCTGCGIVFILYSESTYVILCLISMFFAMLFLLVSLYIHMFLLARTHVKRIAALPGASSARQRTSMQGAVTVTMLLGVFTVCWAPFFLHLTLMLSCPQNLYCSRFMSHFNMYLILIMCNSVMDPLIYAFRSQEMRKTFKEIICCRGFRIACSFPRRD
T2 sequence (P41968 whole entry, species assumed): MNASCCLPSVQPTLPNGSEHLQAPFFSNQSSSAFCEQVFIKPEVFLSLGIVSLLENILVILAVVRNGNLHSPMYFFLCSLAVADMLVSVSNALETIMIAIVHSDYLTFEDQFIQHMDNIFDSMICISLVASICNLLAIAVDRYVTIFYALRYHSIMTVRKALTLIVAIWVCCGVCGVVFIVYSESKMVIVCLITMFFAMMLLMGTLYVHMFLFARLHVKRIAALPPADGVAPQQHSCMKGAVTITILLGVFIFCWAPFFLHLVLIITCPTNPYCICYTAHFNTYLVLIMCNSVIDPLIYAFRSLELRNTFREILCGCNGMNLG
T1 sequence (Q01718 whole entry, species assumed): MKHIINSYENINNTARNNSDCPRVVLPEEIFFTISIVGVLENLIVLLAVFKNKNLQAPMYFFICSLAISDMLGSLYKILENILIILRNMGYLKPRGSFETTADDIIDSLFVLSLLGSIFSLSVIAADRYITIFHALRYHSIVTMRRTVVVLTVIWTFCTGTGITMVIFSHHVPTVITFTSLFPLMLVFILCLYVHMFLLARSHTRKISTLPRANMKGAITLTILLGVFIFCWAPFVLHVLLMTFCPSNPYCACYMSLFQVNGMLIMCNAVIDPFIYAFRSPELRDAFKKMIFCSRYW
T1 sequence (Q8TCY5 whole entry partner, species assumed): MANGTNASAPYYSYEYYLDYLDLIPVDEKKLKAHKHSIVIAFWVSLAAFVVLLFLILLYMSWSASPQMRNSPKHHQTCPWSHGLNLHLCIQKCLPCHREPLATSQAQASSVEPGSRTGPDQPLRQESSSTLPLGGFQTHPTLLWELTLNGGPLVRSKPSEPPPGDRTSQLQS

Row | Compound | Emax (hMC1r [5]) | Ki (MC4r [6]) | Ki (hMC1r [8]) | EC50 (hMC1r [5]) | further results
1 | CCCC[C@H](NC(C)=O)C(=O)N[C@H]1CCC(=O)NC[C@@H](C(=O)N[C@@H](Cc2c[nH]c3ccccc23)C(N)=O)NC(=O)[C@H](CCCNC(=N)N)NC(=O)[C@@H](Cc2ccccc2)NC(=O)[C@H](Cc2c[nH]cn2)NC1=O [Example 9.3, Ac-Nle-cyclo(Glu-His-D-Phe-Arg-Dap)-Trp-NH2] | 91% | 510 nM |  |  | systemic peptide in plasma [1]: did not detect any; intact peptide in plasma or urine [2]: no intact peptide; peptide levels in fecal samples [2]: significant and approximately equal levels; EC50 (MC2r): > 10000 nM; activity in 72 in vitro assays (Eurofins lead profile) (72 in vitro assays): no activity was detected; inflammation score ([3]; FIG. 1A): as active as sulfasalazine; colon weight ([3]; FIG. 1B): as active as sulfasalazine; EC50 (MC1r): 0.57 nM; EC50 (MC3r): > 10000 nM; peptide release from microparticles ([4]; buffer pH 4.5-5.5): no release; peptide release from microparticles ([4]; buffer pH adjusted over time 4.5-7.5): approximately total release; lipopolysaccharide-induced TNF-α inhibition (TNF-α): comparable to α-MSH and ACTH; EC50 (MC4r [7]): 510 nM; EC50 (MC5r): > 10000 nM
2 | CCCCC(NC(C)=O)C(=O)N[C@H]1CCC(=O)NCC[C@@H](C(N)=O)NC(=O)[C@H](CCCNC(=N)N)NC(=O)[C@@H](Cc2ccccc2)NC(=O)[C@H](Cc2c[nH]cn2)NC1=O (stereo partly drawn) [Example 9.44, Ac-Nle-cyclo(Glu-His-D-Phe-Arg-Dab)-NH2] | 85% |  | 7 nM | 0.32 nM | 
3 | CCCCC(NC(C)=O)C(=O)N[C@H]1CCC(=O)NCC[C@@H](C(N)=O)NC(=O)[C@H](C)NC(=O)[C@@H](Cc2ccccc2)NC(=O)[C@H](Cc2c[nH]cn2)NC1=O (stereo partly drawn) [Example 9.45, Ac-Nle-cyclo(Glu-His-D-Phe-Ala-Dab)-NH2] | 73% |  | 645 nM | 44 nM | 
4 | CCCCC(NC(C)=O)C(=O)N[C@H]1CCC(=O)NCC[C@@H](C(=O)N[C@@H](CCCCN)C(N)=O)NC(=O)[C@H](CCCNC(=N)N)NC(=O)[C@@H](Cc2ccccc2)NC(=O)[C@H](Cc2c[nH]cn2)NC1=O (stereo partly drawn) [Example 9.52, Ac-Nle-cyclo(Glu-His-D-Phe-Arg-Dab)-Lys-NH2] | 91% | 7370 nM | 2 nM | 0.175 nM | 
5 | SYSMEHFRWGKPVGKKRRPVKVYPNGAEDESAEAFPLEF [ACTH, reference compound] |  |  |  |  | EC50 (MC1r): 980 nM

The next lines start with results.

Row | Emax (hMC1r [5]) | Ki (MC4r [6]) | Ki (hMC1r [8]) | EC50 (hMC1r [5]) | Compound | further results
6 | 81% | 4700 nM | 1 nM | 0.107 nM | CCCC[C@H](NC(C)=O)C(=O)N[C@H]1CCC(=O)NC[C@@H](C(=O)N[C@@H](Cc2c[nH]c3ccccc23)C(C)=O)NC(=O)[C@H](CCCNC(=N)N)NC(=O)[C@@H](Cc2ccccc2)NC(=O)[C@H](Cc2c[nH]cn2)NC1=O [Example 9.26, Ac-Nle-cyclo(Glu-His-D-Phe-Arg-Dap)-Trp-OH] | intact peptide in plasma or urine [2]: no intact peptide; peptide levels in fecal samples [2]: significant and approximately equal levels
7 | 72% |  | 0.8 nM | 0.115 nM | CCCC[C@H](NC(C)=O)C(=O)N[C@H]1CCC(=O)NCCC(C(=O)N[C@@H](Cc2c[nH]c3ccccc23)C(N)=O)NC(=O)[C@H](C)NC(=O)[C@@H](Cc2ccccc2)NC(=O)[C@H](Cc2c[nH]cn2)NC1=O (stereo partly drawn) [Example 9.35, Ac-Nle-cyclo(Glu-His-D-Phe-Ala-Dab)-Trp-NH2] | 
8 | 85% | 860 nM | 0.065 nM | 0.016 nM | CCCC[C@H](NC(C)=O)C(=O)N[C@H]1CNC(=O)CCC(=O)NCC[C@@H](C(=O)N[C@@H](Cc2c[nH]c3ccccc23)C(N)=O)NC(=O)[C@H](CCCNC(=N)N)NC(=O)[C@@H](Cc2ccccc2)NC(=O)[C@H](Cc2c[nH]cn2)NC1=O [Example 9.43, Ac-Nle-cyclo(Dap-His-D-Phe-Arg-Dab)-Trp-NH2] | 
